Consider 22 compounds from PubChem BioAssay AID330 (DTP/NCI, 2004).

In this experiment the test system is P388 leukemia ip, CD2F1 mice, survival T/C. The experiment is described as follows: NCI In Vivo Anticancer Drug Screen. Data for tumor model P388 Leukemia (intraperitoneal) in CD2F1 (CDF1) mice. The note with it: endpoint: median survival time, higher = longer survival. A digest of the protocol:
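Mice carrying the transplanted tumor received test compound or vehicle. Survival was recorded in each group, and the value is the treated-group measurement divided by that of the vehicle-treated control group.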

Setting [1] is: dose: 25.0 mg/kg/injection, schedule: Q01DX009 (ip), vehicle: saline with Tween-80.
[2] abbreviates: dose: 100.0 mg/kg/injection, schedule: Q01DX009 (ip), vehicle: saline with Tween-80.
[3] abbreviates: dose: 50.0 mg/kg/injection, schedule: Q01DX009 (ip), vehicle: saline with Tween-80.
The mark [4] stands for this setting: dose: 200.0 mg/kg/injection, schedule: Q01DX009 (ip), vehicle: saline with Tween-80.
[5] abbreviates: dose: 100.0 mg/kg/injection, schedule: Q04DX003 (ip), vehicle: saline.
Where [6] appears, read: dose: 200.0 mg/kg/injection, schedule: Q04DX003 (ip), vehicle: saline.
The mark [7] stands for this setting: dose: 400.0 mg/kg/injection, schedule: Q01DX009 (ip), vehicle: saline with Tween-80.
The mark [8] stands for this setting: dose: 50.0 mg/kg/injection, schedule: Q01DX005 (ip), vehicle: saline with Tween-80.
Setting [9] is: dose: 100.0 mg/kg/injection, schedule: Q01DX005 (ip), vehicle: saline with Tween-80.
Where [10] appears, read: dose: 200.0 mg/kg/injection, schedule: Q01DX005 (ip), vehicle: saline with Tween-80.
The mark [11] stands for this setting: dose: 60.0 mg/kg/injection, schedule: Q01DX005 (ip), vehicle: Klucel (hydroxypropylcellulose) (HPC).

Structures are written as SMILES. Several values for one entry are separate records, joined by “and”; a condition that tells them apart may be missing. Equal entries are not always repeated. Inconclusive results and toxic doses are left out. Square brackets hold non-standard residues; d marks the D form. Peptide text beside a SMILES is read from it. * marks the point of attachment. ξ: configuration not given here. Cbz = O=C(OCc1ccccc1)*; ξNva = CCCC(N)C(=O)O

As to `CCCCSc1nn(CCC#N)c(=O)[nH]c1=O`, the T/C was 98 % of control (dose: 25.0 mg/kg/injection, schedule: Q01DX005 (ip), vehicle: water); 100 % of control (dose: 50.0 mg/kg/injection, schedule: Q01DX005 (ip), vehicle: water); 103 % of control (dose: 100.0 mg/kg/injection, schedule: Q01DX005 (ip), vehicle: water); 100 % of control (dose: 200.0 mg/kg/injection, schedule: Q01DX005 (ip), vehicle: water).
Regarding `O=C1CSC(c2cccs2)N1CCN1C(=O)CSC1c1cccs1` (stereo not given), the T/C reads like this: (dose: 100.0 mg/kg/injection, schedule: Q04DX002 (ip), vehicle: saline with Tween-80) 100 % of control; (dose: 200.0 mg/kg/injection, schedule: Q04DX002 (ip), vehicle: saline with Tween-80) 96 % of control.
For `CN(C)CCCNc1c2ccccc2nc2cc([N+](=O)[O-])ccc12`, the T/C is 103 % of control (dose: 0.1 mg/kg/injection, schedule: Q01DX009 (ip), vehicle: water); 104 % of control (dose: 0.2 mg/kg/injection, schedule: Q01DX009 (ip), vehicle: water); 100 % of control (dose: 0.39 mg/kg/injection, schedule: Q01DX009 (ip), vehicle: water); 100 % of control and 117 % of control (dose: 0.78 mg/kg/injection, schedule: Q01DX009 (ip), vehicle: water); 102 % of control and 108 % of control (dose: 1.56 mg/kg/injection, schedule: Q01DX009 (ip), vehicle: water); 123 % of control (dose: 3.13 mg/kg/injection, schedule: Q01DX009 (ip), vehicle: water). For the same compound, for the setting “dose: 6.25 mg/kg/injection, schedule: Q01DX009 (ip), vehicle: water”, the T/C was 95 % of control.
On to `O=S(=O)(CCl)OCCCl`, for which the T/C under setting [1] was 120 % of control; the T/C (dose: 75.0 mg/kg/injection, schedule: Q01DX009 (ip), vehicle: saline with Tween-80) was 170 % of control; the T/C under setting [2] is 218 % of control.
As for `CC[CH2][Pb]([CH2]CC)([CH2]CC)[O]C(=O)C(F)(F)F`, the T/C (dose: 3.13 mg/kg/injection, schedule: Q01DX009 (ip), vehicle: saline) was 117 % of control.
Consider `O=C(O)CCCCCCCCCO`, for which the T/C is 109 % of control (dose: 25.0 mg/kg/injection, schedule: Q01DX009 (ip), vehicle: saline); 115 % of control (dose: 50.0 mg/kg/injection, schedule: Q01DX009 (ip), vehicle: saline); 100 % of control (dose: 100.0 mg/kg/injection, schedule: Q01DX009 (ip), vehicle: saline); 100 % of control (dose: 200.0 mg/kg/injection, schedule: Q01DX009 (ip), vehicle: saline).
Regarding `COC1(c2ccccc2)N=C(N)NC1(OC)c1ccccc1` (stereo not given), the T/C reads like this: (dose: 6.25 mg/kg/injection, schedule: Q04DX002 (ip), vehicle: saline) 103 % of control; (dose: 12.5 mg/kg/injection, schedule: Q04DX002 (ip), vehicle: saline) 102 % of control; (dose: 25.0 mg/kg/injection, schedule: Q04DX002 (ip), vehicle: saline) 98 % of control.
Take `Cc1c2[nH]c(C(=O)O)cc(=O)c2cc2c(=O)cc(C(=O)O)[nH]c12`: the T/C is 100 % of control under setting [1], 99 % of control under setting [3] and 94 % of control under setting [2].
As for `Clc1ccc2c(NCCN3CCCCCC3)nc(C(Cl)(Cl)Cl)nc2c1`, the T/C was 100 % of control under setting [3], 104 % of control under setting [2] and 100 % of control under setting [4].
On to `C/C=C/CC(/C(C)=N\[N+](C)(C)C)c1ccccc1` (stereo not given), for which the T/C reads like this: under setting [5], 107 % of control; under setting [6], 97 % of control; (dose: 400.0 mg/kg/injection, schedule: Q04DX003 (ip), vehicle: saline) 99 % of control.
As for `O=[N+]([O-])c1ccc(C=Nc2ccccc2)cc1`, the T/C reads like this: under setting [3], 101 % of control; under setting [2], 101 % of control; under setting [4], 97 % of control; under setting [7], 96 % of control.
`Cc1nn(-c2ccccc2)c(N)c1C#N`: the T/C by setting is: (dose: 50.0 mg/kg/injection, schedule: Q04DX003 (ip), vehicle: Klucel (hydroxypropylcellulose) (HPC)) 104 % of control; (dose: 100.0 mg/kg/injection, schedule: Q04DX003 (ip), vehicle: Klucel (hydroxypropylcellulose) (HPC)) 107 % of control; (dose: 200.0 mg/kg/injection, schedule: Q04DX003 (ip), vehicle: Klucel (hydroxypropylcellulose) (HPC)) 106 % of control; (dose: 400.0 mg/kg/injection, schedule: Q04DX003 (ip), vehicle: Klucel (hydroxypropylcellulose) (HPC)) 104 % of control.
Take `O=C1c2ccccc2CCC12OC2c1ccc([N+](=O)[O-])cc1` (stereo not given): the T/C is 100 % of control (dose: 25.0 mg/kg/injection, schedule: Q01DX005 (ip), vehicle: saline with Tween-80); 106 % of control under setting [8]; 110 % of control under setting [9]; 106 % of control under setting [10].
Turning to `Cc1ccc2oc3c(=O)c4ccccc4c(=O)c=3oc2c1`, the T/C was 90 % of control (dose: 100.0 mg/kg/injection, schedule: Q04DX003 (ip), vehicle: saline with Tween-80); 89 % of control (dose: 200.0 mg/kg/injection, schedule: Q04DX003 (ip), vehicle: saline with Tween-80); 90 % of control (dose: 400.0 mg/kg/injection, schedule: Q04DX003 (ip), vehicle: saline with Tween-80).
`COC(=O)/C=C/c1cc(=O)n2c(nc3ccccc32)s1`: the T/C (dose: 15.0 mg/kg/injection, schedule: Q01DX005 (ip), vehicle: Klucel (hydroxypropylcellulose) (HPC)) is 100 % of control; the T/C (dose: 30.0 mg/kg/injection, schedule: Q01DX005 (ip), vehicle: Klucel (hydroxypropylcellulose) (HPC)) is 89 % of control; the T/C under setting [11] was 86 % of control.
`CC1(C)N=C(N)N=C(N)N1NC(=O)c1cccc(Cl)c1`: the T/C was 110 % of control (dose: 50.0 mg/kg/injection, schedule: Q04DX003 (ip), vehicle: saline); 100 % of control under setting [5]; 105 % of control under setting [6].
Take `C=C1C(O)C23CCC4C(C(=O)O)(C(=O)O)CC(OC5OC(CO)C(O)C(OC(=O)CCc6ccccc6)C5NC(=O)CC(C)C)CC4(C)C2CCC1(O)C3` (stereo not given): the T/C reads like this: (dose: 0.25 mg/kg/injection, schedule: Q01DX005 (ip), vehicle: Klucel (hydroxypropylcellulose) (HPC)) 96 % of control; (dose: 0.5 mg/kg/injection, schedule: Q01DX005 (ip), vehicle: Klucel (hydroxypropylcellulose) (HPC)) 98 % of control; (dose: 1.0 mg/kg/injection, schedule: Q01DX005 (ip), vehicle: Klucel (hydroxypropylcellulose) (HPC)) 100 % of control; (dose: 3.12 mg/kg/injection, schedule: Q01DX005 (ip), vehicle: Klucel (hydroxypropylcellulose) (HPC)) 101 % of control.
For `CCOC(=O)c1ccc(N(CC)CC)cc1`, the T/C is 100 % of control under setting [2], 104 % of control under setting [4] and 100 % of control under setting [7].
On to `CCCC(NC(=O)OCc1ccccc1)C(=O)NCC(=O)O` (stereo not given) (Cbz-[ξNva]-Gly-OH), for which the T/C is, setting by setting: (dose: 50.0 mg/kg/injection, schedule: Q01DX005 (ip), vehicle: Klucel (hydroxypropylcellulose) (HPC)) 107 % of control; (dose: 100.0 mg/kg/injection, schedule: Q01DX005 (ip), vehicle: Klucel (hydroxypropylcellulose) (HPC)) 93 % of control; (dose: 200.0 mg/kg/injection, schedule: Q01DX005 (ip), vehicle: Klucel (hydroxypropylcellulose) (HPC)) 91 % of control.
`N#C/C(=C(/N)N1CCOCC1)N1CCOCC1`: the T/C under setting [11] was 100 % of control; the T/C (dose: 120.0 mg/kg/injection, schedule: Q01DX005 (ip), vehicle: Klucel (hydroxypropylcellulose) (HPC)) was 95 % of control; the T/C (dose: 240.0 mg/kg/injection, schedule: Q01DX005 (ip), vehicle: Klucel (hydroxypropylcellulose) (HPC)) is 98 % of control.
As to `CC1CN(C2CCCCC2)CO1` (stereo not given), the T/C (dose: 12.5 mg/kg/injection, schedule: Q01DX005 (ip), vehicle: saline) is 104 % of control and 105 % of control; the T/C (dose: 25.0 mg/kg/injection, schedule: Q01DX005 (ip), vehicle: saline) is 104 % of control and 112 % of control; the T/C (dose: 50.0 mg/kg/injection, schedule: Q01DX005 (ip), vehicle: saline) was 117 % of control and 118 % of control and 124 % of control; the T/C (dose: 100.0 mg/kg/injection, schedule: Q01DX005 (ip), vehicle: saline) was 121 % of control and 124 % of control; the T/C (dose: 200.0 mg/kg/injection, schedule: Q01DX005 (ip), vehicle: saline) is 109 % of control.
Turning to `COC(=O)Nc1nc2ccc(-c3c(C)oc(C)c3C(=O)O)cc2[nH]1`, the T/C under setting [8] was 97 % of control, the T/C under setting [9] is 97 % of control and the T/C under setting [10] was 87 % of control.
